Tests used:
MV4-11 cells = test: MV4-11 cellular proliferative assay, Assay Format B (CTG 2.0, 168 h); format: cell-based; conditions: Homo sapiens, 168 h (7 days), CTG 2.0, read-out: IC50 (MV4-11 cellular proliferative assay, Assay format B)
Procedure, shortened: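 MV4-11 cells seeded overnight in IMDM + 10% FBS, then exposed to 10-point, 3-fold dilutions from 1 uM or 100 nM top concentration (0.3% DMSO final) for 168 h at 37 °C. CTG 2.0 luminescence read; % viability vs DMSO control fitted by four-parameter logistic regression.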

MLLT1 = target: T1, MLLT1 (Homo sapiens, UniProt Q03111); test: MLLT1 degradation assay in MV4-11 cells (JESS chemiluminescent detection), three concentrations, 24 h; format: cell-based; conditions: with respect to DMSO control
T1 construct: host or cells: MV4-11
T1 sequence (Q03111 1-559): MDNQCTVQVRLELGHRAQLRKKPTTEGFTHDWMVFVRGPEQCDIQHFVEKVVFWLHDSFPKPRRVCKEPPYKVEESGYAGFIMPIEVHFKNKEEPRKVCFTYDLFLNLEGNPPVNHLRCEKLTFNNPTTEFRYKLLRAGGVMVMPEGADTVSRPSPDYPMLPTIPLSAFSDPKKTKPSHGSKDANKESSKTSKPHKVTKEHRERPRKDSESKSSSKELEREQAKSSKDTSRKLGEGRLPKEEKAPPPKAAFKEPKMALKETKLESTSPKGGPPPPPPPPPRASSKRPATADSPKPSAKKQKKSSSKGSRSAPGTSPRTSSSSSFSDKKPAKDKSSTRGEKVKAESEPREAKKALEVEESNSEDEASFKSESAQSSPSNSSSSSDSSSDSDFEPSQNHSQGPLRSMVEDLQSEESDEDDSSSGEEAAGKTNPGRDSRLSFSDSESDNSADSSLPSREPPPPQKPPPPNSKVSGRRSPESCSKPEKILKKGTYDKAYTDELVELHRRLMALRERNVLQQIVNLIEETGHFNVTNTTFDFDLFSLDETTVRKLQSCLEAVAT
Procedure, shortened: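 MV4-11 cells treated 24 h at 37° C, 5% CO2 with 1000, 100 and 10 nM compound (0.1% DMSO final). MLLT1 quantified by automated capillary chemiluminescent immunodetection; band peak area expressed as % degradation relative to DMSO control.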

Structure (SMILES) | IC50 (MV4-11 cells) [nM] | MLLT1% Degradation @ 0.01 μM (MLLT1) | MLLT1% Degradation @ 0.1 μM (MLLT1) | MLLT1% Degradation @ 1 μM (MLLT1)
CN1CCC[C@@H]1c1cc2cnc(NC(=O)c3ccc(OC4CCN(CC5CCN(c6cccc7c6C(=O)N(C6CCC(=O)NC6=O)C7=O)CC5)CC4)cc3)cc2[nH]1 (stereo partly drawn) [Example 144, 4-((1-((1-(2-(2,6-dioxopiperidin-3-yl)-1,3-dioxoisoindolin-4-yl)piperidin-4-yl)methyl)piperidin-4-yl)oxy)-N-(2-((R)-1-methylpyrrolidin-2-yl)-1H-pyrrolo[3,2-c]pyridin-6-yl)benzamide] | ≤ 100 | B (Category B: 50% ≤ B < 75% degradation) | A (Category A: A ≥ 75% degradation) | A (Category A: A ≥ 75% degradation)
CN1CCC[C@@H]1c1cc2cnc(NC(=O)c3ccc(CCCN4CCN(c5cccc6c5CN(C5CCC(=O)NC5=O)C6=O)CC4)cc3)cc2[nH]1 (stereo partly drawn) [Example 131, 4-(3-(4-(2-(2,6-dioxopiperidin-3-yl)-1-oxoisoindolin-4-yl)piperazin-1-yl)propyl)-N-(2-((R)-1-methylpyrrolidin-2-yl)-1H-pyrrolo[3,2-c]pyridin-6-yl)benzamide] | ≤ 100 | B (Category B: 50% ≤ B < 75% degradation) | A (Category A: A ≥ 75% degradation) | A (Category A: A ≥ 75% degradation)
CN1CCC[C@@H]1c1cc2cnc(NC(=O)c3ccc(C4CCN(CC5CCN(c6cccc7c6CN(C6CCC(=O)NC6=O)C7=O)CC5)CC4)nc3)cc2[nH]1 (stereo partly drawn) [Example 119, 6-(1-((1-(2-(2,6-dioxopiperidin-3-yl)-1-oxoisoindolin-4-yl)piperidin-4-yl)methyl)piperidin-4-yl)-N-(2-((R)-1-methylpyrrolidin-2-yl)-1H-pyrrolo[3,2-c]pyridin-6-yl)nicotinamide] | ≤ 100 | B (Category B: 50% ≤ B < 75% degradation) | A (Category A: A ≥ 75% degradation) | A (Category A: A ≥ 75% degradation)
CN1CCC[C@@H]1c1cc2cnc(NC(=O)c3ccc(OC4CCN(CC5CCN(c6ccc7c(c6)C(=O)N(C6CCC(=O)NC6=O)C7=O)CC5)CC4)cc3)cc2[nH]1 (stereo partly drawn) [Example 124, 4-((1-((1-(2-(2,6-dioxopiperidin-3-yl)-1,3-dioxoisoindolin-5-yl)piperidin-4-yl)methyl)piperidin-4-yl)oxy)-N-(2-((R)-1-methylpyrrolidin-2-yl)-1H-pyrrolo[3,2-c]pyridin-6-yl)benzamide] | ≤ 100 | B (Category B: 50% ≤ B < 75% degradation) | A (Category A: A ≥ 75% degradation) | A (Category A: A ≥ 75% degradation)
CN1CCC[C@@H]1c1cc2cnc(NC(=O)c3ccc(N4CCC(C5CCN(c6cccc7c6CN(C6CCC(=O)NC6=O)C7=O)CC5)CC4)nc3)cc2[nH]1 (stereo partly drawn) [Example 75, 6-(1′-(2-(2,6-dioxopiperidin-3-yl)-1-oxoisoindolin-4-yl)-[4,4′-bipiperidin]-1-yl)-N-(2-((R)-1-methylpyrrolidin-2-yl)-1H-pyrrolo[3,2-c]pyridin-6-yl)nicotinamide] | ≤ 100 | A (Category A: A ≥ 75% degradation) | A (Category A: A ≥ 75% degradation) | A (Category A: A ≥ 75% degradation)
CN1CCC[C@@H]1c1cc2cnc(NC(=O)c3ccc(CCCCC#Cc4cccc(C(=O)N[C@H]5CCC(=O)NC5=O)n4)cc3)cc2[nH]1 [Example 7, N—((S)-2,6-dioxopiperidin-3-yl)-6-(6-(4-((2-((R)-1-methylpyrrolidin-2-yl)-1H-pyrrolo[3,2-c]pyridin-6-yl)carbamoyl)phenyl)hex-1-yn-1-yl)picolinamide] | ≤ 100 | A (Category A: A ≥ 75% degradation) | A (Category A: A ≥ 75% degradation) | A (Category A: A ≥ 75% degradation)
CN1CCC[C@@H]1c1cc2cnc(NC(=O)c3ccc(CCCC#Cc4cccc5c4CN(C4CCC(=O)NC4=O)C5=O)c(F)c3)cc2[nH]1 (stereo partly drawn) [Example 93, 4-(5-(2-(2,6-dioxopiperidin-3-yl)-1-oxoisoindolin-4-yl)pent-4-yn-1-yl)-3-fluoro-N-(2-((R)-1-methylpyrrolidin-2-yl)-1H-pyrrolo[3,2-c]pyridin-6-yl)benzamide] | ≤ 100 | A (Category A: A ≥ 75% degradation) | A (Category A: A ≥ 75% degradation) | A (Category A: A ≥ 75% degradation)
CN1CCC[C@@H]1c1cc2cnc(NC(=O)c3ccc(N4CCC(COC5CCN(c6cccc7c6CN(C6CCC(=O)NC6=O)C7=O)CC5)CC4)nc3)cc2[nH]1 (stereo partly drawn) [Example 140, 6-(4-(((1-(2-(2,6-dioxopiperidin-3-yl)-1-oxoisoindolin-4-yl)piperidin-4-yl)oxy)methyl)piperidin-1-yl)-N-(2-((R)-1-methylpyrrolidin-2-yl)-1H-pyrrolo[3,2-c]pyridin-6-yl)nicotinamide] | ≤ 100 | B (Category B: 50% ≤ B < 75% degradation) | A (Category A: A ≥ 75% degradation) | A (Category A: A ≥ 75% degradation)
CN1CCC[C@@H]1c1cc2cnc(NC(=O)c3cccc(CCCC#Cc4cccc5c4CN(C4CCC(=O)NC4=O)C5=O)c3)cc2[nH]1 (stereo partly drawn) [Example 95, 3-(5-(2-(2,6-dioxopiperidin-3-yl)-1-oxoisoindolin-4-yl)pent-4-yn-1-yl)-N-(2-((R)-1-methylpyrrolidin-2-yl)-1H-pyrrolo[3,2-c]pyridin-6-yl)benzamide] | ≤ 100 | A (Category A: A ≥ 75% degradation) | A (Category A: A ≥ 75% degradation) | A (Category A: A ≥ 75% degradation)
CN1CCC[C@@H]1c1cc2cnc(NC(=O)c3ccc(OC4CCN(CC5CCN(c6cccc7c6CN(C6CCC(=O)NC6=O)C7=O)CC5)CC4)cc3)cc2[nH]1 (stereo in doubt) [Example 122, 4-((1-((1-(2-((rel-S)-2,6-dioxopiperidin-3-yl)-1-oxoisoindolin-4-yl)piperidin-4-yl)methyl)piperidin-4-yl)oxy)-N-(2-((R)-1-methylpyrrolidin-2-yl)-1H-pyrrolo[3,2-c]pyridin-6-yl)benzamide] | ≤ 100 | A (Category A: A ≥ 75% degradation) | A (Category A: A ≥ 75% degradation) | A (Category A: A ≥ 75% degradation)
CN1CCC[C@@H]1c1cc2cnc(NC(=O)c3ccc(N4CCC(C#Cc5cccc6c5CN(C5CCC(=O)NC5=O)C6=O)CC4)nc3)cc2[nH]1 (stereo partly drawn) [Example 17, 6-(4-((2-(2,6-dioxopiperidin-3-yl)-1-oxoisoindolin-4-yl)ethynyl)piperidin-1-yl)-N-(2-((R)-1-methylpyrrolidin-2-yl)-1H-pyrrolo[3,2-c]pyridin-6-yl)nicotinamide] | ≤ 100 | A (Category A: A ≥ 75% degradation) | A (Category A: A ≥ 75% degradation) | A (Category A: A ≥ 75% degradation)

Continued, values first:

IC50 (MV4-11 cells) [nM] | MLLT1% Degradation @ 0.01 μM (MLLT1) | MLLT1% Degradation @ 0.1 μM (MLLT1) | MLLT1% Degradation @ 1 μM (MLLT1) | Structure (SMILES)
≤ 100 | A (Category A: A ≥ 75% degradation) | A (Category A: A ≥ 75% degradation) | A (Category A: A ≥ 75% degradation) | CN1CCC[C@@H]1c1cc2cnc(NC(=O)c3ccc(OCCCC#Cc4cccc5c4CN(C4CCC(=O)NC4=O)C5=O)cc3F)cc2[nH]1 (stereo partly drawn) [Example 213, 4-((5-(2-(2,6-dioxopiperidin-3-yl)-1-oxoisoindolin-4-yl)pent-4-yn-1-yl)oxy)-2-fluoro-N-(2-((R)-1-methylpyrrolidin-2-yl)-1H-pyrrolo[3,2-c]pyridin-6-yl)benzamide]
≤ 100 | A (Category A: A ≥ 75% degradation) | A (Category A: A ≥ 75% degradation) | A (Category A: A ≥ 75% degradation) | CN1CCC[C@@H]1c1cc2cnc(NC(=O)c3ccc(CCCC4CCN(c5cccc6c5CN([C@H]5CCC(=O)NC5=O)C6=O)CC4)cc3F)cc2[nH]1 (relative stereo) [Example 175, 4-(3-(1-(2-((rel-S)-2,6-dioxopiperidin-3-yl)-1-oxoisoindolin-4-yl)piperidin-4-yl)propyl)-2-fluoro-N-(2-((R)-1-methylpyrrolidin-2-yl)-1H-pyrrolo[3,2-c]pyridin-6-yl)benzamide]
